Data set [1] addresses T1, peripheral site of AChE from bovine erythrocytes (Bos taurus, UniProt P23795).
T1 construct: A solution of AChE from bovine erythrocytes; from tissue; host or cells: bovine erythrocytes
T1 sequence (P23795 31-614 isoform P23795-2 limits assumed): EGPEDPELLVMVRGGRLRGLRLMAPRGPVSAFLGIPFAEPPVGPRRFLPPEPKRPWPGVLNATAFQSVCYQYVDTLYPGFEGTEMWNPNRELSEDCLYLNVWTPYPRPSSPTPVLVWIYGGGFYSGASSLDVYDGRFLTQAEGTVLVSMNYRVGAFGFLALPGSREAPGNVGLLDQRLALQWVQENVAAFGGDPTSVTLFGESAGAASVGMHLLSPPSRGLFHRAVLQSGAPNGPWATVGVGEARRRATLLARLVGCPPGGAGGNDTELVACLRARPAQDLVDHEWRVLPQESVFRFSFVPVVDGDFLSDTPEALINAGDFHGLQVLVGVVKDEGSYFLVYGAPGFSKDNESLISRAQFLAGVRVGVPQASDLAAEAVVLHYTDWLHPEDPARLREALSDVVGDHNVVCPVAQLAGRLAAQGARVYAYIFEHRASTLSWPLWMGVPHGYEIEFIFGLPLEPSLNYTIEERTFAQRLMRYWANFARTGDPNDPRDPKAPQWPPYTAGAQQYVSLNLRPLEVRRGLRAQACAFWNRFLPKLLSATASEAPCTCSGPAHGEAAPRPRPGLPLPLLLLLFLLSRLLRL
Description: biochemical. The format is binding. To be noted: for inhibition at 0.3 µM: compound 0.3 micromolar (concentration of maximum reduction).
Description: A competition test for the peripheral site of acetylcholinesterase was carried out with the compounds at concentrations of 0.3, 1 and 3 micromolar.
A solution of AChE from bovine erythrocytes at the concentration of 5 micromolar in Tris buffer 0.1 milimolar and pH 8 was used.

Data set [2] deals with human neuroblastoma cell line SH-SYSY. The data set is described as follows: Neuroprotection against hydrogen peroxide-induced cell death (LDH release). It counts as cell-based. To be noted: for inhibition at 10 µM: read-out: Protection (%); for inhibition at 1 µM: compound 1 micromolar (concentration of maximum protection); for inhibition at 3 µM: compound 3 micromolar (concentration of maximum protection); for inhibition at 30 µM: compound 30 micromolar (concentration of maximum protection). Background: LDH leaks from cells whose membrane has failed.

Data set [3] addresses T2, purified AChE from Electrophorus electricus (Electrophorus electricus, UniProt O42275).
T2 construct: using purified AChE from Electrophorus electricus; from tissue
The data set is described as follows: Inhibition of acetylcholinesterase (method of Rappaport). It counts as biochemical. As to the method:
For this reason, it was considered interesting to evaluate the capacity to inhibit AChE of the compounds of the present invention. This evaluation was performed following the method of Rappaport (Clin. Chim. Acta 1959, 4, 227), using purified AChE from Electrophorus electricus and acetylcholine chloride (29.5 milimolar) as substrate. The reaction took place in a final volumen of 2.5 milliliters of an aqueous solution containing 0.78 units of AChE and m-nitrophenol at 1.9 milimolar to produce a yellow color, which is lost in function of the enzyme activity.
Curves of inhibition were made incubating with the compounds of the present invention for 30 minutes and a sample without any compound was prepared to determine the 100% of the enzymatic activity. After 30 minutes of incubation, the loss of yellow color was evaluated by measuring absorbance at 405 nanometers in a spectrophotometric microplate reader (iEMS Reader MF, Labsystems). The concentration of compound producing 50% inhibition of AChE activity (IC50) was calculated transforming the values of absorbance to enzymatic activity Rappaport units extrapolating from a calibration curve previously obtained.
The results of inhibition of AChE, expressed as the concentration which inhibits 50% of activity (IC50) for the compounds of the present invention, are the following: […]

The conditions of data set [4]: PAMPA. On the technique in general: PAMPA measures passive passage across an artificial lipid membrane.
Description: (§1) The experiments were performed using two 96-well microplate in a sandwich assembly. The top microplate (Millipore, Ref MAIPS4510) is provided with 96 hydrophobic PVDF filters, where a solution of a lipid extract of pig brain (Avanti Polar Lipids) in dodecane is put down.
(§2) The bottom microplate has 96 tear-shaped wells (Millipore, Ref. MAMCS9610). The acceptor 96-well microplate was filled with 180 μL per well of a mixture of phosphate buffer saline pH 7.4 (PBS) and EtOH in proportion 90:10. The filter surface of the donor microplate was impregnated with 4 μL of a solution of lipid extract from pig brain in dodecane (20 mg mL^−1). Compounds were dissolved in PBS/EtOH (90:10) and then 180 μL were added to the donor microplate, which is carefully placed on the receiver plate. After 120 minutes of incubation at 25° C., plate donor is carefully separated and determined the concentration of the compounds in the acceptor plate by UV spectroscopy. This method measures the permeability, expressed as the rate of passage of a given barrier in 10^−6 centimeter per second (10^−6 cm s^−1). The results are expressed as the mean plus/minus the standard deviation of three independent assays, each containing four replicates of each tested compound.
A short description of the next data set: in vitro. To be noted: pig, PAMPA, pH 7.4.
The test system of data set [5] is human neuroblastoma cell line SH-SYSY. Description: Neuroprotection against rotenone plus oligomycin A-induced cell death (LDH release). To be noted: rotenone (30 micromolar) plus oligomycin A (10 micromolar).
Description: With this goal in mind, the cytoprotective effect of the compounds was evaluated in human neuroblastoma cells, specifically the neuroprotective potential of these compounds against oxidative stress produced in two different models: with hydrogen peroxide as exogenous generator of free radicals, and with rotenone and oligomycin A, blockers of the mitochondrial respiratory chain, as described in J. Neurochem.
In the assays, SH-SYSY were sub-cultured in 48-well plates with a density of seed of 5×10^5 cells per well, or in 96-well plates with a density of 2×10^5 cells per well. In the cytotoxicity experiments, cells prepared in this way were treated with the compounds to test, in DMEM free of serum.
To study the cytoprotective action of different compounds against cell death induced by hydrogen peroxide 30 micromolar or by a combination of rotenone 30 micromolar with oligomycin A 10 micromolar, compounds were added to the medium and maintained there for 24 hours. Then, media were replaced by fresh media still containing the compound plus the cytotoxic agent, and were maintained there for an additional period of 24 hours. Cell viability was checked by measuring the activity of the enzyme LDH, as it was explained before, using the kit “Cytotoxicity Cell Death” (Roche-Boehringer Mannheim) following the instructions of the manufacturer. Total LDH activity was defined as the sum of intra plus extra LDH activities. Released LDH was defined as the percentage of extracellular compared with total LDH activity.
In all the pharmacological experiments a positive control was used as comparison and to evaluate the reliability of the method used.
Setting [6] is: read-out: Protection (%) (percentage of the reduction in propidium fluorescence).
[7] abbreviates: oxygen peroxide (60 micromolar) stimulus, SH-SYSY, LDH.
Where [8] appears, read: 30 minutes incubation, acetylcholine chloride 29.5 milimolar as substrate, read-out: AChE-I, IC50.
Where [9] appears, read: compound 3 micromolar (concentration of maximum reduction), propidium 20 micromolar, AChE 5 micromolar, read-out: Protection (%) (percentage of the reduction in propidium fluorescence).
[10] abbreviates: compound 0.3 micromolar (concentration of maximum protection).
Setting [11] is: propidium 20 micromolar, AChE 5 micromolar, read-out: Protection (%) (percentage of the reduction in propidium fluorescence).
Where [12] appears, read: oxygen peroxide (60 micromolar) stimulus, compound 10 micromolar (concentration of maximum protection), SH-SYSY, LDH.
Setting [13] is: compound 3 micromolar (concentration of maximum protection).

Where two headings read alike, the source gives them in different places.

T2 sequence (O42275 24-633): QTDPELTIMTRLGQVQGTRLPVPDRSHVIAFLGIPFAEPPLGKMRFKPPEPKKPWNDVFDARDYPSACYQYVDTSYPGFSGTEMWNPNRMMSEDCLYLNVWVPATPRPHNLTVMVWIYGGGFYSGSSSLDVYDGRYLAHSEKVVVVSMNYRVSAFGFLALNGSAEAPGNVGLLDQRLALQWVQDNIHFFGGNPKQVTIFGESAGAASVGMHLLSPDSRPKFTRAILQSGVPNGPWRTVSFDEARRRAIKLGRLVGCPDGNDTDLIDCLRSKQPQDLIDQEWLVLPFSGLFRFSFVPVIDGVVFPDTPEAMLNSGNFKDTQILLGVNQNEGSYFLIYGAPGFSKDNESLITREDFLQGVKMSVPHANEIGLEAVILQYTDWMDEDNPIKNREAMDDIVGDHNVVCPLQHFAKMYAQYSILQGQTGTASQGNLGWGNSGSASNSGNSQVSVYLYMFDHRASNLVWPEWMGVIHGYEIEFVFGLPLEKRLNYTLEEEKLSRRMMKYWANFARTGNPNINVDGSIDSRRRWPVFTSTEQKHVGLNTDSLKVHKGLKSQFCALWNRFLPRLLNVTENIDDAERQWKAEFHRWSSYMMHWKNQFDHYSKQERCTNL
Description for in vitro: as §1, §2

In the case of `C=CC[N+](C)(C)c1ccc(CCC(=O)CCc2ccc([N+](C)(C)CC=C)cc2)cc1.[Br-].[Br-]` [BW284c51, reference compound], the “Protection (%) (percentage of the reduction in propidium fluorescence)” value in data set [1] (positive control at 1000 micromolar (1 milimolar), propidium 20 micromolar, AChE 5 micromolar) was 24.5%.
As to `CCCCCCOC(=O)C(CCC(=O)NCCC1CCN(Cc2ccccc2)CC1)NC(=O)OCc1ccccc1` (stereo not shown) [Example 1.1, n-hexyl 2-benzyloxycarbonylamino-4-[2-(1-benzylpiperidin-4-yl)-ethylcarbamoyl]-butyrate], the inhibition at 10 µM in data set [2] amounted to 39.1%. In addition, the IC50 – broadly, the concentration that gives 50% inhibition – in data set [3] stood at 1.4 µM. In data set [1] (setting [6]), the inhibition at 3 µM was found to be 29.3%.
In the case of `CCCCCCOC(=O)C(CCC(=O)NCCC1CCN(Cc2ccccc2)CC1)NC(=O)OC(C)(C)C` (stereo not shown) [Example 1.2, n-hexyl 4-[2-(1-benzylpiperidin-4-yl)-ethylcarbamoyl]-2-tert-butoxycarbonylamino-butyrate], the inhibition at 1 µM came to 24.9% in data set [2] (setting [7]) and 43.6% in data set [1] (setting [6]). The same compound displayed a concentration for half-maximal inhibition (IC50) in data set [3] of 5 µM. Also, the “Classification (CNS penetration)” value in data set [4] is “CNS+”. Moreover, the Papp (in general, a coefficient for how fast a substance crosses the barrier) at 120 min in the data set “in vitro” amounted to 4.4 ± 0.1 ×10⁻⁶ cm/s.
On to `CCCCCCOC(=O)C(CCC(=O)NCCC1CCN(Cc2ccccc2)CC1)NC(=O)c1ccccc1` (stereo not shown) [Example 1.3, n-hexyl 2-benzoylamino-4-[2-(1-benzylpiperidin-4-yl)-ethylcarbamoyl]-butyrate], for which the inhibition at 3 µM in data set [2] (setting [7]) came to 68.1%; in data set [1] (setting [9]), 37.3%. Also, in data set [3] (setting [8]), the IC50 was 1.9 µM. Besides, the “Protection (%)” value in data set [5] (setting [10]) amounted to 47.9%.
Take `CCCCCCOC(=O)C(CCC(=O)NCCC1CCN(Cc2ccccc2)CC1)NC(=O)c1cc2ccccc2s1` (stereo not shown) [Example 1.4, n-hexyl 2-[(benzo[b]tiofen-2-carbonyl)-amino]-4-[2-(1-benzyl-piperidin-4-yl)-ethylcarbamoyl]-butyrate]: the inhibition at 1 µM in data set [2] (setting [7]) came to 28.7%. Further, the IC50 in data set [3] (read-out: AChE-I, IC50) was 2.5 µM. Moreover, in data set [1] (setting [9]), the inhibition at 3 µM stood at 39.7%.
With `CCCCCCOC(=O)C(CCC(=O)NCCC1CCN(Cc2ccccc2)CC1)NC(=O)Cc1cc2ccc(Cl)cc2s1` (stereo not shown) [Example 1.5, n-hexyl 4-[2-(1-benzyl-piperidin-4-yl)-ethylcarbamoyl]-2-[2-(6-chloro-benzo[b]thiophen-2-yl)-acetylamino]-butyrate], the inhibition at 3 µM in data set [2] (setting [7]) amounted to 32.5%; in data set [1] (setting [9]) it was 23.4%. Also, the IC50 in data set [3] (setting [8]) was found to be 2.3 µM.
In data set [2] (setting [7]), `CCCCCCOC(=O)C(CCC(=O)NCCC1CCN(Cc2ccccc2)CC1)NC(=O)c1cc2cccnc2s1` (stereo not shown) [Example 1.6, n-hexyl 4-[2-(1-benzyl-piperidin-4-yl)-ethylcarbamoyl]-2-[(thieno[2,3-b]piridin-2-carbonyl)-amino]-butyrate] gave an inhibition at 30 µM of 48.8%. For the same compound, in data set [3] (setting [8]), the IC50 was 3.25 µM. The inhibition at 0.3 µM in data set [1] (setting [11]) is 37.4%. The “Classification (CNS penetration)” value in data set [4] is “CNS+”. For the same compound, the Papp at 120 min in “in vitro” was 3.2 ± 0.01 ×10⁻⁶ cm/s.
`CCCCCCOC(=O)C(CCC(=O)NCCC1CCN(Cc2ccccc2)CC1)NC(=O)c1cc2ccsc2s1` (stereo not shown) [Example 1.7, n-hexyl 4-[2-(1-benzyl-piperidin-4-yl)-ethylcarbamoyl]-2-[(thieno[2,3-b]thiophen-2-carbonyl)-amino]-butyrate]: the inhibition at 10 µM in data set [2] (setting [12]) came to 46.4%. Besides, in data set [3] (setting [8]), the IC50 amounted to 3.5 µM. In data set [1] (setting [11]), the inhibition at 0.3 µM is 42.2%. The “Protection (%)” value in data set [5] (setting [10]) was found to be 46.1%.
With `CCCCCCOC(=O)C(CCC(=O)NCCC1CCN(Cc2ccccc2)CC1)NC(=O)c1cccs1` (stereo not shown) [Example 1.8, n-hexyl 4-[2-(1-benzyl-piperidin-4-yl)-ethylcarbamoyl]-2-[(thiophen-2-carbonyl)-amino]-butyrate], in data set [2] (setting [12]), the inhibition at 10 µM stood at 73%. In addition, the half-inhibitory concentration (IC50) in data set [3] (setting [8]) is 3.5 µM. Further, in data set [1] (setting [9]), the inhibition at 3 µM is 15%. The “Classification (CNS penetration)” value in data set [4] is listed as “CNS+”. The compound further gave a Papp at 120 min in “in vitro” of 5.3 ± 0.01 ×10⁻⁶ cm/s. The “Protection (%)” value in data set [5] (compound 0.1 micromolar (concentration of maximum protection)) is reported as 48.9%.
In data set [2] (setting [7]), `CCCCCCOC(=O)C(CCC(=O)NCCC1CCN(Cc2ccccc2)CC1)NC(=O)c1cc(Br)cs1` (stereo not shown) [Example 1.9, n-hexyl 4-[2-(1-benzyl-piperidin-4-yl)-ethylcarbamoyl]-2-[(4-bromo-thiophen-2-carbonyl)-amino]-butyrate] showed an inhibition at 3 µM of 84.3%. The IC50 in data set [3] (setting [8]) turned out to be 1.2 µM. Further, the inhibition at 0.3 µM in data set [1] (setting [11]) was found to be 11.3%. For the same compound, the “Protection (%)” value in data set [5] (setting [13]) is 35.9%.
Compound `Cc1c(C)c2c(c(C)c1O)CCC(C)(C(=O)O)O2` (stereo not shown) [Trolox, trolox, reference compound] returned an inhibition at 30 µM in data set [2] (setting [7]) of 57.7%. In addition, the “Protection (%)” value in data set [5] (setting [13]) was 52.9%.

The values above are taken from US20100305157A1 (priority 2007, published 2010).
